Assay results from publication PMC8062304 (Journal of the American Chemical Society, 2021).

Assays:
[1] = target: T1, carboxypeptidase Y (Saccharomyces cerevisiae, UniProt P00729); assay type: in vitro ADME; conditions: after 2 h at 95 °C; CFB-produced lasso peptide from native BGC; Figure S7
T1 sequence (P00729 112-532): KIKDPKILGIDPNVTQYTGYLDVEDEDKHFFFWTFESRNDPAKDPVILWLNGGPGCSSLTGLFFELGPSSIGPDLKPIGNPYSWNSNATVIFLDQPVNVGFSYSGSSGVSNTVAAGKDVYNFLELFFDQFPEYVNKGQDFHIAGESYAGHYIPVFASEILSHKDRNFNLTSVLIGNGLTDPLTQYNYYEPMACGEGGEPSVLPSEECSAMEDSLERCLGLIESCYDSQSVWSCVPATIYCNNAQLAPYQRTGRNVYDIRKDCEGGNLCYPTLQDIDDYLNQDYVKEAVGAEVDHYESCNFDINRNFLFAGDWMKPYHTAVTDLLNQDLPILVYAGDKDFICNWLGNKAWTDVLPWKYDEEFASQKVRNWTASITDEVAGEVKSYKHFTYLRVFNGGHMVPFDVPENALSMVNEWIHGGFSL

[2] = cited from earlier work
[3] = test system: transcription/translation (production of the fluorescent protein mCherry); assay type: biochemical, E. coli; conditions: CFB-produced capistruin supplied at 10 µM; compared to a control that omitted capistruin; fluorescence reporter

| Substance | carboxypeptidase Y resistance after prolonged heating [1] | conformation after extended exposure to organic solvent [2] | reduction in mCherry production [3] [%] |
| --- | --- | --- | --- |
| cellulassin | efficient carboxypeptidase Y digestion | – | – |
| burhizin | retained protease resistance | – | – |
| fusilassin | efficient carboxypeptidase Y digestion | adopted a branched-cyclic form | – |
| capistruin (GTPGFQTPDARVISRFGFN; Capistruin; UniProt P0DQM5 29-47, looked up) | – | – | 66 |
